Assay results reported in patent US10077288B2, “Hydroxystatin derivatives for the treatment of arthrosis” (Merck Patent GmbH, priority 2012, dated 2018).
*1 amine or outer side, *2 acyl side, *3 side chain or, on linkers, in order; H or OH if unused. Where a SMILES comes first, the peptide text is derived from it. [ ]: non-standard residue; d: D form. The star is where a group is joined. Ahppa(3S,4S) = O=C(C[C@H](O)[C@H](Cc1ccccc1)N[*:1])[*:2]; PhAc = O=C(Cc1ccccc1)*; OBn = c1ccc(CO*)cc1

The molecules below were run against T1, cathepsin D isolated from the human liver (Homo sapiens, UniProt P07339) (assay: In-vitro fluorescence assay for identification of cathepsin D inhibitors). Details: human liver cathepsin D 1.4 nM, pH 5.5; read-out: CatD assay IC50-(M).
T1 construct: cathepsin D isolated from the human liver (Sigma-Aldrich); purchased Sigma-Aldrich; host or cells: human liver (tissue-derived, not recombinant)
T1 sequence (P07339 65-161 limits assumed): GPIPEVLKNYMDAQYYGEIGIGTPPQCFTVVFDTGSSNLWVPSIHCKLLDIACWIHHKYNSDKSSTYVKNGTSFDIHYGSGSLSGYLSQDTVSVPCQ
T1 sequence (P07339 169-412 limits assumed): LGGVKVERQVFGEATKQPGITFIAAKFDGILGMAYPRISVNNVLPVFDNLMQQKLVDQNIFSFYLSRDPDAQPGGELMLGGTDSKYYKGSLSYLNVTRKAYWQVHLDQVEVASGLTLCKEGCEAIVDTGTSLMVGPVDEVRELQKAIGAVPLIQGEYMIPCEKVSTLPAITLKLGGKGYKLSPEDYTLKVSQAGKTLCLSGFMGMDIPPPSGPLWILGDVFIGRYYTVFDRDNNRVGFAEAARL
Assay type: biochemical
Protocol: EXAMPLE 4: IN-VITRO FLUORESCENCE ASSAY FOR IDENTIFICATION OF CATHEPSIN D INHIBITORS
In order to identify modulators of cathepsin D activity, a continuous enzymatic test was carried out with a synthetic peptide which carries a fluorescent group (MCA=(7-methoxycoumarin-4-yl)acetyl) which is quenched by energy transfer from a Dpn (2,4 dinitrophenyl) group on the same molecule, in Greiner 384-well nb microtitre plates. Cleavage of the peptidic substrate by cathepsin D causes an increase in the fluorescence intensity. In order to determine the efficacy of substances, the time-dependent increase in the fluorescence intensity in the presence of the substance was compared with the time-dependent increase in fluorescence in the absence of substances. The reference substance used was pepstatin A (Sigma-Aldrich). The substrate used was MCA-GKPILFFRLK(Dnp)d-R—NH2 (Enzo Life Sciences, Lörrach). The enzyme employed was cathepsin D isolated from the human liver (Sigma-Aldrich) in a final concentration of 1.4 nM. The test was carried out in 100 mM sodium acetate buffer, 1.25% (v/v) of DMSO, 0.25% (w/v) of Chaps, pH 5.5. 2 μl of each substance solution with serially diluted substance concentration were added to in each case 4 μl of cathepsin D solution and incubated at room temperature for 10 min. The reaction was started by addition of 2 μl of substrate solution (final concentration 5 μM). After carrying out a starting-point fluorescence measurement (excitation wavelength 340 nm/emission wavelength 450 nm) using an Envision multilabel reader (Perkin Elmer), the reaction was incubated at room temperature for 60 min. The amount of peptide fragment cleaved off during the reaction time was subsequently measured by determination of the increase in the fluorescence intensity at 450 nm (excitation wavelength 340 nm).
Work on `CCCOc1cccc(CC(=O)N[C@H](C(=O)N[C@@H](Cc2ccccc2)[C@@H](O)CC(=O)N[C@H](C(=O)N[C@H](C(=O)O)C(C)C)[C@@H](C)CC)[C@@H](C)CC)c1` [Compound 40, (S)-2-[(2S,3S)-2-((3S,4S)-3-hydroxy-4-{(2S,3S)-3-methyl-2-[2-(3-propoxyphenyl)acetylamino]pentanoylamino}-5-phenylpentanoylamino)-3-methylpentanoylamino]-3-methylbutyric acid] yielded an IC50 of 1.7e-08 M.
With `CC[C@H](C)[C@H](NC(=O)C[C@H](O)[C@H](Cc1ccccc1)NC(=O)[C@@H](NC(=O)COc1ccc(C)c(C)c1)C(C)C)C(=O)N[C@H](C(=O)O)C(C)C` [Compound 29, (S)-2-[(2S,3S)-2-((3S,4S)-4-{(S)-2-[2-(3,4-dimethylphenoxy)acetylamino]-3-methylbutyrylamino}-3-hydroxy-5-phenylpentanoylamino)-3-methylpentanoylamino]-3-methylbutyric acid] the IC50 was 1e-07 M.
In the case of `CC[C@H](C)[C@H](NC(=O)C[C@H](O)[C@H](Cc1ccccc1)NC(=O)[C@@H](NC(=O)C(c1ccccc1)c1ccccc1)C(C)C)C(=O)N[C@H](C(=O)O)C(C)C` [Compound 33, (S)-2-{(2S,3S)-2-[(3S,4S)-4-((S)-2-diphenylacetylamino-3-methyl-butyrylamino)-3-hydroxy-5-phenylpentanoylamino]-3-methylpentanoylamino}-3-methylbutyric acid], the IC50 is reported as 1.6e-08 M.
Work on `CCOc1cccc(CC(=O)N[C@H](C(=O)N[C@@H](Cc2ccccc2)[C@@H](O)CC(=O)N[C@H](C(=O)N[C@H](C(=O)OCc2ccccc2)C(C)C)[C@@H](C)CC)[C@@H](C)CC)c1` [Compound 34, benzly (S)-2-[(2S,3S)-2-((3S,4S)-4-{(S)-2-[2-(3-ethoxyphenyl)-acetylamino]-3-methyl-1-(S)-oxopentylamino}-3-hydroxy-5-phenylpentanoylamino)-3-methylpentanoylamino]-3-methylbutyrate] yielded an IC50 of 2.7e-07 M.
Molecule `CCOc1cccc(CC(=O)N[C@H](C(=O)N[C@@H](Cc2ccccc2)[C@@H](O)CC(=O)N[C@H](C(=O)N[C@H](C(=O)O)C(C)C)[C@@H](C)CC)C(C)C)c1` [Compound 17, (S)-2-[(2S,3S)-2-((3S,4S)-4-{(S)-2-[2-(3-ethoxyphenyl)acetylamino]-3-methylbutyrylamino}-3-hydroxy-5-phenylpentanoylamino)-3-methylpentanoylamino]-3-methylbutyric acid] has an IC50 of 1.55e-08 M.
`CC[C@H](C)[C@H](NC(=O)C[C@H](O)[C@H](Cc1ccccc1)NC(=O)[C@@H](NC(=O)C(CC)(CC)CC)C(C)C)C(=O)N[C@H](C(=O)O)C(C)C` [Compound 38, (S)-2-((2S,3S)-2-{(3S,4S)-4-[(S)-2-(2,2-diethylbutyrylamino)-3-methylbutyrylamino]-3-hydroxy-5-phenylpentanoylamino}-3-methylpentanoylamino)-3-methylbutyric acid] showed an IC50 of 7e-06 M.
For `CC[C@H](C)[C@H](NC(=O)C[C@H](O)[C@H](Cc1ccccc1)NC(=O)[C@@H](NC(=O)Cc1ccc2ccccc2c1)C(C)C)C(=O)N[C@H](C(=O)O)C(C)C` [Compound 25, (S)-2-((2S,3S)-2-{(3S,4S)-3-hydroxy-4-[(S)-3-methyl-2-(2-naphthalen-2-ylacetylamino)butyrylamino]-5-phenylpentanoylamino}-3-methylpentanoylamino)-3-methylbutyric acid], the IC50 was 8.1e-09 M.
With `CC[C@H](C)[C@H](NC(=O)C[C@H](O)[C@H](Cc1ccccc1)NC(=O)[C@@H](NC(=O)Cc1cc(OC(F)(F)F)ccc1OC)C(C)C)C(=O)N[C@H](C(=O)O)C(C)C` [Compound 24, (S)-2-[(2S,3S)-2-((3S,4S)-3-hydroxy-4-{(S)-2-[2-(2-methoxy-5-trifluoromethoxyphenyl)acetylamino]-3-methylbutyrylamino}-5-phenylpentanoylamino)-3-methylpentanoylamino]-3-methylbutyric acid] the IC50 was 1.1e-08 M.
In the case of `CC[C@H](C)[C@H](NC(=O)C[C@H](O)[C@H](Cc1ccccc1)NC(=O)[C@@H](NC(=O)c1cccc(OC(C)(C)C)c1)C(C)C)C(=O)N[C@H](C(=O)O)C(C)C` [Compound 26, (S)-2-((2S,3S)-2-{(3S,4S)-4-[(S)-2-(3-tert-butoxybenzoylamino)-3-methylbutyrylamino]-3-hydroxy-5-phenylpentanoylamino}-3-methylpentanoylamino)-3-methylbutyric acid], the IC50 is reported as 1.2e-07 M.
`CC[C@H](C)[C@H](NC(=O)C[C@H](O)[C@H](Cc1ccccc1)NC(=O)[C@@H](NC(=O)Cc1cccc(Oc2ccccc2)c1)C(C)C)C(=O)N[C@H](C(=O)O)C(C)C` [Compound 27, (S)-2-[(2S,3S)-2-((3S,4S)-3-hydroxy-4-{(S)-3-methyl-2-[2-(3-phenoxyphenyl)acetylamino]butyrylamino}-5-phenylpentanoylamino)-3-methylpentanoylamino]-3-methylbutyric acid] was tested, and the IC50 was 1.2e-08 M.
Molecule `CC[C@H](C)[C@H](NC(=O)C[C@H](O)[C@H](Cc1ccccc1)NC(=O)[C@@H](NC(=O)Cc1ccc(OC)c(OC)c1)C(C)C)C(=O)N[C@H](C(=O)OCc1ccccc1)C(C)C` [Compound 10, benzly (S)-2-[(2S,3S)-2-((3S,4S)-4-{(S)-2-[2-(3,4-dimethoxyphenyl)-acetylamino]-3-methylbutyrylamino}-3-hydroxy-5-phenylpentanoylamino)-3-methylpentanoylamino]-3-methylbutyrate] has an IC50 of 2.9e-08 M.
With `CC[C@H](C)[C@H](NC(=O)C[C@H](O)[C@H](Cc1ccccc1)NC(=O)[C@@H](NC(=O)Cc1cc(OC(F)(F)F)ccc1OC)C(C)C)C(=O)N[C@H](C(=O)OCc1ccccc1)C(C)C` [Compound 18, benzly (S)-2-[(2S,3S)-2-((3S,4S)-3-hydroxy-4-{(S)-2-[2-(2-methoxy-5-trifluoromethoxyphenyl)acetylamino]-3-methylbutyrylamino}-5-phenylpentanoylamino)-3-methylpentanoylamino]-3-methylbutyrate] the IC50 was 3.4e-08 M.
Work on `CCC(CC)NC(=O)[C@@H](NC(=O)C[C@H](O)[C@H](Cc1ccccc1)NC(=O)[C@@H](NC(=O)[C@H](CC(C)C)NC(=O)CC(C)C)C(C)C)[C@@H](C)CC` [Compound 42, N-[(1S,2S)-1-(1-ethylpropylcarbamoyl)-2-methylbutyl]-(2S,5S)-3-hydroxy-4-{(S)-3-methyl-2-[(S)-4-methyl-2-(3-methylbutyrylamino)-pentanoylamino]butyrylamino}-5-phenylpentanamide] yielded an IC50 of 1.3e-09 M.
With `CC[C@H](C)[C@H](NC(=O)C[C@H](O)[C@H](Cc1ccccc1)NC(=O)[C@@H](NC(=O)Cc1ccc(OC)cc1)C(C)C)C(=O)N[C@H](C(=O)OCc1ccccc1)C(C)C` [Compound 11, benzly (S)-2-[(2S,3S)-2-((3S,4S)-3-hydroxy-4-{(S)-2-[2-(4-methoxy-phenyl)acetylamino]-3-methylbutyrylamino}-5-phenylpentanoylamino)-3-methylpentanoylamino]-3-methylbutyrate] the IC50 was 9e-08 M.
In the case of `CC[C@H](C)[C@H](NC(=O)C[C@H](O)[C@H](Cc1ccccc1)NC(=O)[C@@H](NC(=O)[C@H](CC(C)C)NC(=O)Cc1ccccc1)C(C)C)C(=O)N[C@H](C(=O)OCc1ccccc1)C(C)C` [Compound 44, benzyl (S)-2-((2S,3S)-2-{(3S,4S)-3-hydroxy-4-[(S)-3-methyl-2-((S)-4-methyl-2-phenylacetylaminopentanoylamino)butyrylamino]-5-phenylpentanoylamino}-3-methylpentanoylamino)-3-methylbutyrate] (PhAc-LV[Ahppa(3S,4S)]IV-OBn), the IC50 is reported as 2.1e-09 M.
Work on `CCC[C@H](NC(=O)C[C@H](O)[C@H](Cc1ccccc1)NC(=O)[C@@H](NC(=O)[C@H](CC(C)C)NC(=O)CC(C)C)C(C)C)C(=O)NC(CC)CC` [Compound 48, N—[(S)-1-(1-ethylpropylcarbamoyl)butyl]-(3S,4S)-3-hydroxy-4-{(S)-3-methyl-2-[(S)-4-methyl-2-(3-methylbutyrylamino)pentanoylamino]-butyrylamino}-5-phenylpentanamide] yielded an IC50 of 2.6e-10 M.
For `CC[C@H](C)[C@H](NC(=O)C[C@H](O)[C@H](Cc1ccccc1)NC(=O)[C@@H](NC(=O)Cc1cccc(OCCNC(=O)OC(C)(C)C)c1)[C@@H](C)CC)C(=O)N[C@H](C(=O)O)C(C)C` [Compound 39, (S)-2-{(2S,3S)-2-[(3S,4S)-4-((S)-2-{2-[3-(2-tert-butoxycarbonyl-aminoethoxy)phenyl]acetylamino}-3-methyl-1-(S)-oxopentylamino)-3-hydroxy-5-phenylpentanoylamino]-3-methylpentanoylamino}-3-methylbutyric acid], the IC50 was 3.9e-08 M.
